{"source": "paper PMC12389170", "about": "“N-Degron-Based PROTAC Targeting PLK1: A Potential Therapeutic Strategy for Cervical Cancer” (Pharmaceutics, 2025)", "key": {"[1]": {"tested_on": "HeLa cells"}, "[2]": {"tested_on": "HeLa xenograft cervical cancer", "assay": "In vivo antitumor activity, HeLa xenograft mouse model", "conditions": "nude mice, 4 mg/kg tail vein every 3-4 d for 29 d, n = 4", "description": "The antitumor efficacy of NC1 was assessed in a HeLa xenograft mouse model, as reported. Briefly, 5 × 10^6 HeLa cells were subcutaneously injected into the right thigh region of immunodeficient nude mice. When tumors reached an approximate volume of 100 mm^3 (calculated using the formula: volume = 0.52 × length × width^2), mice were randomly assigned to treatment groups. NC1 (4 mg/kg) or PBS (vehicle control) was administered via tail vein injection at intervals of 3–4 days over a period of 29 days. Tumor volumes were measured regularly using calipers. All animal procedures were approved by the KBSI Institutional Animal Care and Use Committee (Protocol No. KBSI-IACUC-24-15) and were conducted in accordance with institutional and governmental regulations."}, "[3]": {"molecular_target": "T1, PLK1 PBD (Mus musculus, UniProt Q07832)", "T1 construct": "(Swiss Prot entry Q07832, residues 367–603); 6XHis (N); TEV protease cleavage site (N); made in house; pET28a vector and IPTG induction point to E. coli (inferred)", "assay": "Isothermal titration calorimetry (ITC) of PLK1 PBD with NC1", "conditions": "25 °C, PLK1 PBD 20 µM in cell, NC1 200 µM in syringe, 20 mM HEPES pH 7.5, 200 mM NaCl, 5% DMSO, one-site model, read-out: Kd, binding affinity between NC1 and PLK1 PBD", "description": "The mouse PLK1 in Polo box domain (PBD) (Swiss Prot entry Q07832, residues 367–603) was expressed as a recombinant protein containing an N-terminal 6XHis tag in the pET28a vector and a tobacco etch virus (TEV) protease cleavage was engineered between the affinity tag and PLK1 PBD. PLK1 PBD protein expression was induced by adding 0.1 mM IPTG and incubating the cells overnight at 18 °C. Following induction, the cells were collected by centrifugation and lysed via sonication after being resuspended in buffer composed of 20 mM HEPES (pH 7.5), 200 mM NaCl, 2 mM β-mercaptoethanol, and 1 mM PMSF. The lysate was clarified by centrifugation at 18,000 rpm for 40 min at 4 °C. The resulting supernatant was subjected to immobilized metal affinity chromatography (IMAC) using a Ni^2+-NTA HiTrap column (GE Healthcare), and the protein was eluted using an imidazole gradient ranging from 25 to 500 mM. For further purification, size-exclusion chromatography was conducted on a HiLoad 26/60 Superdex-75 column equilibrated with 20 mM HEPES (pH 7.2), 150 mM NaCl, and 2 mM DTT. PLK1 PBD protein was purified the purity of the proteins at each stage was checked on 15% SDS-PAGE. The purified PLK1 PBD protein was concentrated to 10 mg/mL using a VIVASPIN20 (Sartorius, Göttingen, Germany) concentrator and stored at −80 °C until use. […]"}, "[4]": {"tested_on": "cervical carcinoma", "conditions": "advanced or recurrent cervical carcinoma, limited owing to chemoresistance; cited from earlier work", "description": "According to the WHO, cervical cancer was the fourth most common cancer among women globally in 2022, with an estimated 660,000 new cases. Cervical cancer remains a considerable health threat, with 94% of the 350,000 deaths occurring in low- and middle-income countries. Chemotherapy, particularly cisplatin, is the primary treatment for advanced or recurrent cervical carcinoma. However, the response rate is limited to approximately 23% owing to chemoresistance. In addition, carboplatin, another platinum-based chemotherapy, is often used as an alternative for patients intolerant to c ..."}, "[5]": {"molecular_target": "T2, PLK1 (Homo sapiens, UniProt P53350)", "T2 construct": "cells were lysed and total proteins were extracted for immunoblot analysis of PLK1 expression; endogenous in cells; host or cells: HeLa", "T2 sequence (P53350 whole entry)": "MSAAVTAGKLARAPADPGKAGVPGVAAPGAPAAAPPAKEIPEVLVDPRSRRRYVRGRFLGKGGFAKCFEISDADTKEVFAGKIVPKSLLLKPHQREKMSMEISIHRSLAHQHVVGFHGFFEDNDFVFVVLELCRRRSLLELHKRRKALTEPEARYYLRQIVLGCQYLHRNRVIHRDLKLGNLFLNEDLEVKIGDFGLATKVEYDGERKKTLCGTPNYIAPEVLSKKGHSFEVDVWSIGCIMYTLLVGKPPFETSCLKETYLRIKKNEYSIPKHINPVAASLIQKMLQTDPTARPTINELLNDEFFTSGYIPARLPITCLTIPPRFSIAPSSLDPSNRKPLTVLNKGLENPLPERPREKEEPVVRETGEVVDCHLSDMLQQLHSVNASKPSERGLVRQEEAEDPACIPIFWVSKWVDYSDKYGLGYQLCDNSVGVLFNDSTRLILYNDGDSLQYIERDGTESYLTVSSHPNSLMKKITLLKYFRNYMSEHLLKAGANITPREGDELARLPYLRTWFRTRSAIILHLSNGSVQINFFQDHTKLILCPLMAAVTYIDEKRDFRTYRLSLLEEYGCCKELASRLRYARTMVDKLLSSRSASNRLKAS", "assay": "PLK1 protein degradation in HeLa cells by immunoblotting", "format": "cell-based", "conditions": "NC1 24 h, 5 µM MG132 for 8 h", "description": "HeLa cells were seeded in 12-well plates with 1 × 10^5 cells per well and allowed to stay for overnight. Various concentrations (0, 1, 2, 3, 4, and 5 µM) of NC1 were added to HeLa cells in 12-well plates and incubated for 24 h. An amount of 5 µM of MG132 was added to the cells and incubated for 8 h to evaluate the proteasome inhibition. before harvesting. Following treatment, cells were lysed and total proteins were extracted for immunoblot analysis of PLK1 expression. Protein samples were separated by SDS-PAGE and transferred onto PVDF membranes. PLK1 was detected using a mouse-derived monoclonal antibody, with β-actin used as an internal control to ensure equal loading."}, "[6]": {"tested_on": "HeLa cells", "assay": "Fluorescence apoptosis assay (LIVE/DEAD kit)", "format": "cell-based", "conditions": "6 µM, 24 h, LIVE/DEAD staining"}, "[7]": {"tested_on": "HeLa cells", "assay": "G2/M phase cell cycle arrest by flow cytometry (PI)", "format": "cell-based", "conditions": "6 µM, 24 h", "description": "HeLa cells (3.5 × 10^5 cells/well) were seeded into 6-well plates and grown to 80–90% confluence. […] Both medium and floating cells were collected, washed with PBS three times, and fixed in 70% cold ethanol. Further, cells were washed again with PBS and stained with a solution containing PI (1 µg/mL) and RNase A (1 µg/mL) at 37 °C for 30 min. The stained cells were analyzed using a CytoFLEX flow cytometer (Beckman Coulter, Brea, CA, USA), and data were processed with FlowJo v10.10 [10]."}, "[8]": {"tested_on": "HeLa cells", "assay": "Morphological assessment by phase contrast microscopy", "format": "cell-based", "conditions": "6 µM, 30 h"}, "[9]": {"molecular_target": "T3, NC1 (Arg12-Ahx-PLH(n-octylphenyl)SpT PROTAC peptide) (synthetic construct)", "T3 chain": "RRRRRRRRRRRR[Ahx]PLH(n‑octylphenyl)S[pT]-NH2", "assay": "ITC"}}, "note": "Non-standard residues stand in square brackets, D forms with d. Residues, ends and D or L forms follow the SMILES beside them. No end group written: not given here. *: point of attachment. n‑octylphenyl = n-octylphenyl group on the histidine (alkylphenyl side chain at His); His(π-(CH2)8Ph) = N[C@@H](Cc1cncn1CCCCCCCCc1ccccc1)C(=O)O; pT = C[C@@H](OP(=O)(O)O)[C@H](N)C(=O)O; Cbz = O=C(OCc1ccccc1)*; Ahx = NCCCCCC(=O)O", "data": [{"molecule": "CC(C)C[C@H](NC(=O)[C@@H]1CCCN1C(=O)CCCCCNC(=O)[C@H](CCCNC(=N)N)NC(=O)[C@H](CCCNC(=N)N)NC(=O)[C@H](CCCNC(=N)N)NC(=O)[C@H](CCCNC(=N)N)NC(=O)[C@H](CCCNC(=N)N)NC(=O)[C@H](CCCNC(=N)N)NC(=O)[C@H](CCCNC(=N)N)NC(=O)[C@H](CCCNC(=N)N)NC(=O)[C@H](CCCNC(=N)N)NC(=O)[C@H](CCCNC(=N)N)NC(=O)[C@H](CCCNC(=N)N)NC(=O)[C@@H](N)CCCNC(=N)N)C(=O)N[C@@H](Cc1cncn1CCCCCCCCc1ccccc1)C(=O)N[C@@H](CO)C(=O)N[C@H](C(N)=O)[C@@H](C)OP(=O)(O)O", "note": "[NC1] (H-RRRRRRRRRRRR[Ahx]PL[His(π-(CH2)8Ph)]S[pT]-NH2)", "values": [{"measurement": "IC50", "setting": "[1]; read-out: IC50 for cancer cell viability, MTT, 24 h", "result": 5.23, "unit": "µM"}, {"measurement": "Body weight of tumor-bearing mice", "setting": "[2]", "result": "remained constant"}, {"measurement": "Kd", "setting": "[3]", "result": 6.06, "unit": "µM"}]}, {"molecule": "N.N.[Cl][Pt][Cl]", "note": "[cisplatin]", "values": [{"measurement": "Response rate", "setting": "[4]", "result": "approximately 23%"}]}, {"molecule": "CC(C)C[C@@H](C=O)NC(=O)[C@H](CC(C)C)NC(=O)[C@H](CC(C)C)NC(=O)OCc1ccccc1", "note": "[MG132] (Cbz-Leu-Leu-Leu-aldehyde)", "values": [{"measurement": "Effect of proteasome inhibitor co-treatment on NC1-induced PLK1 degradation", "setting": "[5]", "result": "significantly reduced degradation"}]}, {"molecule": "PLH(n-octylphenyl)SpT [4j]", "values": [{"measurement": "Apoptotic (dead, red) cells in fluorescence images", "setting": "[6]", "result": "few apoptotic red cells"}, {"measurement": "Effect on cell viability", "setting": "[1]; MTT, 24 h, up to 12 µM", "result": "did not significantly affect cell viability"}, {"measurement": "G1 cell population", "setting": "[7]", "result": 75.88}, {"measurement": "G2/M cell population", "setting": "[7]", "result": 14.68}, {"measurement": "Increase in G2/M cell population compared with the control", "setting": "[7]", "result": 2.38, "unit": "%"}, {"measurement": "S cell population", "setting": "[7]", "result": 5.47}, {"measurement": "SubG1 cell population", "setting": "[7]", "result": 3.97}, {"measurement": "Morphological changes of HeLa cells", "setting": "[8]", "result": "did not induce notable morphological changes"}]}, {"molecule": "PLK1 367-603 (protein) NEAIECHLSDLLQQLTSVNASKPSERGLVRQEEAEDPACIPIFWVSKWVDYSDKYGLGYQLCDNSVGVLFNDSTRLILYNDGDSLQYIERDGTESYLTVSSHPNSLMKKITLLNYFRNYMSEHLLKAGANITPREGDELARLPYLRTWFRTRSAIILHLSNGTVQINFFQDHTKLILCPLMAAVTYINEKRDFQTYRLSLLEEYGCCKELASRLRYARTMVDKLLSSRSASNRLKAS", "values": [{"measurement": "Kd", "setting": "[9]", "result": 6.06, "unit": "µM"}]}]}
